According to patent US10556865B2, “Synergistic herbicidal composition containing certain pyridine or pyrimidine carboxylic acids and certain cereal and rice herbicides” (Dow AgroSciences, LLC, priority 2007, dated 2020):
“And” between values parts separate entries of the source, which are not always exact repeats. Equal entries are not always repeated.

What was measured:
[1] = tested on: Leptochloa chinensis (L.) NEES (LEFCH); experiment: Postemergence herbicidal mixtures for weed control in direct seeded rice (greenhouse, visual % injury); format: in vivo; settings: for % Injury Ob: LEFCH
[2] = tested on: yellow foxtail (PESGL); experiment: Postemergence herbicidal activity of mixtures in cereal crops (greenhouse, visual injury); format: in vivo, Pennisetum americanum
Description: Seeds of the desired test plant species were planted in Sun Gro MetroMix® 306 planting mixture, which typically has a pH of 6.0 to 6.8 and an organic matter content of about 30 percent, in plastic pots with a surface area of 103.2 square centimeters (cm^2). […] The plants were grown for 7-36 days in a greenhouse with an approximate 14 hour photoperiod which was maintained at about 18° C. during the day and 17° C. during the night. Nutrients and water were added on a regular basis and supplemental lighting was provided with overhead metal halide 1000-Watt lamps as necessary. The plants were employed for testing when they reached the second or third true leaf stage.
Treatments consisted of compound (as listed in Tables 1 through 64) and a second cereal herbicide alone and in combination. […] The concentrated stock solutions were diluted to 1.5 mg ai/mL with the addition of 2 volumes of an aqueous mixture containing acetone, water, isopropyl alcohol, DMSO, Agri-dex crop oil concentrate, and Triton® X-77 surfactant in a 64.7:26.0:6.7:2.0:0.7:0.01 v/v ratio. A dilution solution was prepared by mixing 1 volume of 97:3 v/v acetone/DMSO and 2 volumes of an aqueous mixture containing acetone, water, isopropyl alcohol, DMSO, Agri-dex crop oil concentrate, and Triton® X-77 surfactant in a 64.7:26.0:6.7:2.0:0.7:0.01 v/v ratio. Compound requirements are based upon a 12 mL application volume at a rate of 187 liters per hectare (L/ha). […] Formulated compounds were applied to the plant material with an overhead Mandel track sprayer equipped with 8002E nozzles calibrated to deliver 187 L/ha over an application area of 0.503 square meters (m^2) at a spray height of 18 inches […] above average plant canopy. Control plants were sprayed in the same manner with the solvent blank.
The treated plants and control plants were placed in a greenhouse as described above and watered by sub-irrigation to prevent wash-off of the test compounds. After 20-22 days, the condition of the test plants as compared with that of the control plants was determined visually and scored on a scale of 0 to 100 percent where 0 corresponds to no injury and 100 corresponds to complete kill.
Colby's equation was used to determine the herbicidal effects expected from the mixtures (Colby, S. R. 1967. Calculation of the synergistic and antagonistic response of herbicide combinations. Weeds 15:20-22.).
The following equation was used to calculate the expected activity of mixtures containing two active ingredients, A and B: Expected=A+B−(A×B/100)

Structure (SMILES) | % Injury Ob ([1]; 17.5 g/ha alone) | % Injury Ob ([1]; 35 g/ha alone) [%] | % Injury LEFCH Ob ([1]; alone 4.38 g/ha) [%] | % Injury LEFCH Ob ([1]; alone 8.75 g/ha) [%] | PESGL Ob ([2]; 8.75 g/ha) [%] | PESGL Ob ([2]; 17.5 g/ha) [%] | PESGL Ob ([2]; 35 g/ha) [%] | PESGL Ob ([2]; 70 g/ha) [%]
COC(=O)c1nc(-c2ccc(Cl)c(OC)c2F)cc(N)c1Cl [Compound A Methyl, 4-amino-3-chloro-6-(4-chloro-2-fluoro-3-methoxyphenyl)pyridine-2-carboxylic acid methyl ester] | 75% and 50% | 90 | 30 | 40 | – | – | – | –
COC(=O)c1nc(-c2ccc(Cl)c(OC)c2F)nc(N)c1Cl [Compound B Methyl, 6-amino-5-chloro-2-(4-chloro-2-fluoro-3-methoxyphenyl)pyrimidine-4-carboxylic acid methyl ester] | – | – | – | – | 60 | 65 | 65 | 70
